Measurements reported in the supplement of paper PMC11061612.

Experiments:
Assay in all cases: Bliss excess, mean over the matrix (fraction); higher = more synergy
[1] = test system: BHT-101 (Thyroid Gland Carcinoma)
How it was run: (§1)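 Bliss excess equals the observed combination effect minus the expected value EA + EB − EA·EB, where EA and EB are the effects of each agent alone. Combination Emax is the second-highest inhibition within the matrix. Inhibition was scaled from CellTiter-Glo 2.0 luminescence, with 0 set by vehicle wells and 1 by blank wells, after 72 hours of two-drug dosing of cells plated in 1536-well plates.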

[2] = test system: C-33-A (Cervical Carcinoma)
How it was run: as §1

[3] = test system: DBTRG-05MG (Glioblastoma)
How it was run: as §1

[4] = test system: HT-1080 (Other Solid Carcinomas)
How it was run: as §1

[5] = test system: IA-LM (Non-Small Cell Lung Carcinoma)
How it was run: as §1

[6] = test system: KALS-1 (Glioblastoma)
How it was run: as §1

[7] = test system: KP-4 (Pancreatic Carcinoma)
How it was run: as §1

[8] = test system: MDA-MB-415 (Breast Carcinoma)
How it was run: as §1

[9] = test system: MONO-MAC-6 (Acute Myeloid Leukemia)
How it was run: as §1

[10] = test system: NCI-H1341 (Small Cell Lung Carcinoma)
How it was run: as §1

[11] = test system: NCI-H1876 (Small Cell Lung Carcinoma)
How it was run: as §1

[12] = test system: NCI-H3118 (Head and Neck Carcinoma)
How it was run: as §1

[13] = test system: OVCAR-3 (Ovarian Carcinoma)
How it was run: as §1

[14] = test system: PA-TU-8988T (Pancreatic Carcinoma)
How it was run: as §1

[15] = test system: PL4 (Pancreatic Carcinoma)
How it was run: as §1

[16] = test system: SAT (Head and Neck Carcinoma)
How it was run: as §1

[17] = test system: SK-CO-1 (Colorectal Carcinoma)
How it was run: as §1

[18] = test system: SNU-423 (Hepatocellular Carcinoma)
How it was run: as §1

[19] = test system: T84 (Colorectal Carcinoma)
How it was run: as §1

[20] = test system: WM35 (Melanoma)
How it was run: as §1

| SMILES | Bliss excess [1] | Bliss excess [2] | Bliss excess [3] | Bliss excess [4] | Bliss excess [5] | Bliss excess [6] | Bliss excess [7] | Bliss excess [8] | Bliss excess [9] | Bliss excess [10] | Bliss excess [11] | Bliss excess [12] | Bliss excess [13] | Bliss excess [14] | Bliss excess [15] | Bliss excess [16] | Bliss excess [17] | Bliss excess [18] | Bliss excess [19] | Bliss excess [20] |
| --- | --- | --- | --- | --- | --- | --- | --- | --- | --- | --- | --- | --- | --- | --- | --- | --- | --- | --- | --- | --- |
| CCc1c2c(nc3ccc(O)cc13)-c1cc3c(c(=O)n1C2)COC(=O)[C@]3(O)CC [SN-38] + CN(C)CCCOc1ccc(-c2ccc3ncc4c(c3c2)n(C2CCOCC2)c(=O)n4C)cn1 [AZD0156] (first compound max 0.3 µM, 7x7, partner max 1 µM) | 0.0664 | 0.0058 | -0.019 | 0.0132 | -0.0369 | 0.0189 | 0.0541 | -0.0262 | 0.0746 | -0.0226 | -0.0111 | 0.0864 | -0.037 | 0.0755 | 0.0253 | 0.0361 | -0.0032 | -0.0165 | 0.108 | 0.0082 |
| C[C@@H](c1ccc2nccn2c1)n1nnc2ncc(-c3cnn(C)c3)nc21 [Savolitinib] + CC1(C)CCC(CN2CCN(c3ccc(C(=O)NS(=O)(=O)c4ccc(NCC5CCOCC5)c([N+](=O)[O-])c4)c(Oc4cnc5[nH]ccc5c4)c3)CC2)=C(c2ccc(Cl)cc2)C1 [Venetoclax] (first compound max 1 µM, 7x7, partner max 1 µM) | -0.0341 | -0.0466 | -0.0572 | -0.0676 | -0.0963 | -0.0571 | -0.0556 | -0.0258 | 0.0005 | 0.0535 | -0.0486 | -0.0398 | -0.0399 | -0.0763 | -0.105 | -0.131 | -0.0491 | -0.0205 | -0.0649 | -0.065 |
| C[C@@H](c1ccc2nccn2c1)n1nnc2ncc(-c3cnn(C)c3)nc21 [Savolitinib] + Cc1c2c(nn1C)CSCc1cc(n(C)n1)CSc1cc(c3ccccc3c1)OCCCc1c(C(=O)O)n(C)c3c-2c(Cl)ccc13 [AZD5991] (first compound max 1 µM, 7x7, partner max 1 µM) | -0.0307 | -0.0084 | -0.0596 | -0.0475 | 0.0086 | -0.0411 | -0.0204 | -0.0462 | 0.0346 | 0.0274 | 0.0044 | -0.0268 | -0.0341 | -0.0205 | -0.0492 | -0.0558 | -0.037 | -0.0364 | -0.0652 | -0.0503 |
| Cn1cnc2c(F)c(Nc3ccc(Br)cc3Cl)c(C(=O)NOCCO)cc21 [Selumetinib] + C=CCn1c(=O)c2cnc(Nc3ccc(N4CCN(C)CC4)cc3)nc2n1-c1cccc(C(C)(C)O)n1 [AZD1775] (first compound max 10 µM, partner max 1 µM) | -0.0417 | 0.021 | 0.0098 | -0.0299 | -0.0017 | -0.0755 | -0.0377 | -0.0754 | -0.013 | 0.0153 | -0.021 | 0.0207 | -0.0737 | -0.0202 | -0.0685 | -0.0151 | -0.0579 | -0.0078 | -0.0495 | 0.0038 |
| Cn1cnc2c(F)c(Nc3ccc(Br)cc3Cl)c(C(=O)NOCCO)cc21 [Selumetinib] + CC(C)n1c(=O)n(C)c2cnc3cc(F)c(-c4ccc(OCCCN5CCCCC5)nc4)cc3c21 [AZD1390] (first compound max 10 µM, 7x7, partner max 0.3 µM) | -0.0429 | 0.0134 | 0.0213 | -0.0697 | -0.0102 | -0.0115 | -0.0571 | -0.047 | -0.0166 | -0.0071 | 0.0068 | 0.0525 | -0.0387 | -0.0269 | 0.0102 | 0.0022 | -0.0168 | -0.0026 | -0.0265 | -0.0551 |
| Cn1cnc2c(F)c(Nc3ccc(Br)cc3Cl)c(C(=O)NOCCO)cc21 [Selumetinib] + CCN(CCO)CCCOc1ccc2c(Nc3cc(CC(=O)Nc4cccc(F)c4)[nH]n3)ncnc2c1 [AZD2811] (first compound max 10 µM, 7x7, partner max 1 µM) | -0.0267 | 0.0162 | 0.016 | -0.0315 | -0.0353 | -0.0093 | 0.0217 | -0.0064 | 0.003 | 0.0264 | 0.0986 | 0.0259 | -0.0239 | -0.0527 | 0.0097 | -0.0151 | -0.0098 | -0.0263 | -0.0479 | -0.0566 |
| Cn1cnc2c(F)c(Nc3ccc(Br)cc3Cl)c(C(=O)NOCCO)cc21 [Selumetinib] + C[C@@H]1COCCN1C2=NC(=NC(=C2)C3(CC3)[S@](=N)(=O)C)C4=C5C=CNC5=NC=C4 [AZD6738] (first compound max 10 µM, 7x7, partner max 10 µM) | -0.0174 | 0.0486 | 0.0599 | 0.0553 | 0.0061 | -0.0479 | -0.0712 | -0.0395 | -0.0052 | 0.0757 | 0.0218 | 0.0091 | -0.0202 | 0.0731 | 0.0866 | 0.0782 | -0.112 | -0.0238 | 0.1 | 0.0172 |
